Usually LC50 stands for the concentration lethal to half of the exposed cells or organisms.

24 compounds from ChEMBL document CHEMBL4190398, “Detailed Exploration around 4-Aminoquinolines Chemical Space to Navigate the Lysine Methyltransferase G9a and DNA Methyltransferase Biological Spaces” (J Med Chem, 2018) can be followed below.

The subject of one series is THLE-2. Briefly: Cytotoxicity against human THLE2 cells assessed as reduction in cell viability after 72 hrs by MTS assay. Type of series: cell-based. The following applies: thle-2, 72 h. On the technique in general: Formazan colour is commonly taken as a measure of viable cells.
A short description of series [1]: Metabolic stability in human liver microsomes assessed as parent compound remaining at 1 uM preincubated for 10 mins followed by NADP addition measured after 20 mins by LC-MS/MS analysis. Type of series: ADME, microsome. The following applies: read-out: Stability.
A short description of series [2]: Metabolic stability in mouse liver microsomes assessed as parent compound remaining at 1 uM preincubated for 10 mins followed by NADP addition measured after 20 mins by LC-MS/MS analysis. Type of series: ADME, microsome. The following applies: read-out: Stability.

In the case of `CCc1ccc(-c2cc(NC3CCN(C)CC3)c3cc(OC)c(OCCCN(C)C)cc3n2)o1`, in the series with THLE-2, the median lethal concentration (LC50) was determined as 3.52 µM.
As for `COc1cc2c(NC3CC4CCC(C3)N4C)cc(-c3ccc(C)o3)nc2cc1OCCCN1CCCC1` (stereo not drawn), the values for the remaining at 20 min, 1 µM in series [1] and in series [2] were 60.3% and 43.9%, respectively. Moreover, the LC50 in the series on THLE-2 turned out to be 4.15 µM.
For `COc1cc2c(NC3CC4(CCN(C(C)C)CC4)C3)cc(-c3ccc(C)o3)nc2cc1OCCCN1CCCC1`, the LC50 in the series with THLE-2 amounted to 0.841 µM.
In the case of `COc1cc2c(NC3CC4(CCN(C)CC4)C3)cc(-c3ccc(C)o3)nc2cc1OCC1CCN(C)CC1`, in the series with THLE-2, the 50% lethal concentration (LC50) stood at 2.53 µM.
Same read-out and setting: the value for `COc1cc2c(NCC3CCN(C(C)C)CC3)cc(-c3ccc(C)o3)nc2cc1OCCCN1CCCC1` was 0.777 µM; that for `CCc1ccc(-c2cc(NC3CCN(C)CC3)c3cc(OC)c(OCCCN4CCCC4)cc3n2)o1` was 2.32 µM.
In the case of `COc1cc2c(NC3CCN(C)CC3)cc(-c3ccc(C)o3)nc2cc1OCCCN1CCCC1`, the LC50 with THLE-2 worked out at 1.78 µM.
`Cc1ccc(-c2cc(NC3CCN(C)CC3)c3cc(Cl)c(OCCCN4CCCC4)cc3n2)o1`: the remaining at 20 min, 1 µM in series [1] and in series [2] was 81.7% in each case. Further, the median lethal concentration (LC50) in the series on THLE-2 came out at 2.31 µM.
As to `COc1cc2c(NC3CCN(C)CC3)cc(-c3ccc(C)o3)nc2cc1OC1CC2(C1)CN(C)C2`, the remaining at 20 min, 1 µM was 49.8% in series [1] and 43.3% in series [2]. Moreover, the median lethal concentration (LC50) in the series on THLE-2 came to 0.698 µM.
As to `COc1cc2c(NC3C4CCC3CN(C)C4)cc(-c3ccc(C)o3)nc2cc1OCCCN1CCCC1` (stereo not drawn), the LC50 in the series on THLE-2 turned out to be 0.527 µM.
On to `CCc1ccc(-c2cc(NC3CCN(C)CC3)c3cc(OC)c(OCCCN4CCCCC4)cc3n2)o1`, for which the LC50 in the series on THLE-2 worked out at 1.38 µM.
In the case of `COc1cc2c(NC3CCN(C)C(=O)C3)cc(-c3ccc(C)o3)nc2cc1OCCCN1CCCC1` (stereo not drawn), the figures for the remaining at 20 min, 1 µM in series [1] and in series [2] were 82.7% and 71.9%, respectively. For the same compound, the 50% lethal concentration (LC50) in the series with THLE-2 was 7.95 µM.
Turning to `CCc1ccc(-c2cc(NC3CCN(C)CC3)c3cc(OC)c(OCCCN4CCC5(CC5)C4)cc3n2)o1`, the LC50 with THLE-2 worked out at 2.04 µM.
As to `COc1cc2c(NC3CC4(CCN(C)C4)C3)cc(-c3ccc(C)o3)nc2cc1OCCCN1CCCC1` (stereo not drawn), the median lethal concentration (LC50) with THLE-2 is 8.38 µM.
Consider `CCc1ccc(-c2cc(NCC3CCN(C)CC3)c3cc(OC)c(OCCCN4CCCC4)cc3n2)o1`, for which the remaining at 20 min, 1 µM came out at 69% in series [1] and 59.1% in series [2]. The LC50 in the series on THLE-2 came out at 0.954 µM.
For `COc1cc2c(NC3CCN(C)CC3)cc(-c3ccc(C)o3)nc2cc1OCC1CCNCC1`, the LC50 in the series with THLE-2 amounted to 24.8 µM.
On the same count and under the same terms, the value for `COc1cc2c(NCC3CCN(C)CC3)cc(-c3ccc(C)o3)nc2cc1OCCCN1CCCC1` was 1.3 µM; that for `COc1cc2c(NC3CCN(C)CC3)cc(-c3ccc(C)o3)nc2cc1OCC1CCN(C)CC1` was 1.03 µM.
Regarding `COc1cc2c(NC3CCC34CCN(C)CC4)cc(-c3ccc(C)o3)nc2cc1OCCCN1CCCC1` (stereo not drawn), the remaining at 20 min, 1 µM worked out at 80.4% in series [1] and 53.3% in series [2]. The LC50 in the series with THLE-2 turned out to be 0.731 µM.
As for `CCc1ccc(-c2cc(NCC3C4CCC3CN(C)C4)c3cc(OC)c(OCCCN4CCCC4)cc3n2)o1` (stereo not drawn), the LC50 with THLE-2 is under 0.164 µM.
For the compound `COc1cc2c(NC3CC4(CCN(C)CC4)C3)cc(-c3ccc(C)o3)nc2cc1OCCCN1CCCC1`, the remaining at 20 min, 1 µM in series [1] turned out to be 68.6%; in series [2], 40.6%. Besides, the LC50 in the series on THLE-2 amounted to 0.992 µM.
`COc1cc2c(NC3CCC34CCN(C)C4)cc(-c3ccc(C)o3)nc2cc1OCCCN1CCCC1` (stereo not drawn): the LC50 in the series with THLE-2 is 1.98 µM.
On the same count and under the same terms, the value for `CCc1ccc(-c2cc(NC3CCC34CCN(C)CC4)c3cc(OC)c(OCCCN4CCCC4)cc3n2)o1` (stereo not drawn) was 0.517 µM; that for `COc1cc2c(NC3CC4(CCN(C(C)C)CC4)C3)cc(-c3ccc(C)o3)nc2cc1OC1CC2(C1)CN(C)C2` (stereo not drawn) was 4.65 µM.
